Test results published in patent US9073895B2 (Boehringer Ingelheim International GmbH, priority 2010, dated 2015).
pIC50: −log10 of the molar value.

Tests used:
[1] = molecular target: T1, recombinant human FLAP protein (Homo sapiens, UniProt P20292); experiment: FLAP binding assay (SPA, displacement of [125I]L-691,831); settings: membranes of sf9 cells expressing human FLAP, [125I]L-691,831 probe; read-out: hFLAP binding IC50
T1 construct: made in house; host or cells: Sf9 insect cells (membrane fraction, 100,000 x g pellet)
T1 sequence (P20292 1-161): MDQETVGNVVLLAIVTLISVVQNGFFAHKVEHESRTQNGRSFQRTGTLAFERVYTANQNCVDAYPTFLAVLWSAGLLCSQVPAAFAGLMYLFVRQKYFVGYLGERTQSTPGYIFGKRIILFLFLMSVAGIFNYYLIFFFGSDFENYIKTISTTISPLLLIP
Procedure: Compounds are assessed for the ability to bind to FLAP in a binding assay that measures compound-specific displacement of an iodinated (^125I) FLAP inhibitor via a Scintillation Proximity Assay format (adapted from S. Charleson et al., Mol. Pharmacol., 1992, 41, 873-879).
Cell pellets produced from sf9 insect cells expressing recombinant human FLAP protein are resuspended in buffer A [15 mM Tris-HCl (pH 7.5), 2 mM MgCl2, 0.3 mM EDTA, 1 mM PMSF]. The cells are lysed with a Dounce homogenizer and the material is centrifuged at 10,000×g for 10 minutes. The supernatant is then collected and centrifuged at 100,000×g for 60 minutes. To prepare membrane protein for an assay, an aliquot of the 100,000×g pellet is resuspended in 1 ml of buffer A, Dounce homogenized, and finally subjected to polytron mixing (30 seconds). Membrane protein (25 μl, 5 μg) is mixed with WGA SPA beads (Amersham) and stirred for 1 h. To an assay plate (Perkin Elmer FlexiPlate) is added 25 μl of test compound prepared in Binding buffer [100 mM Tris (pH 7.5), 140 mM NaCl, 5% glycerol, 2 mM EDTA, 0.5 mM TCEP, 0.05% Tween 20], 25 μl of [^125I]L-691,831 (an iodinated analog of MK-591, Charleson et al. Mol. Pharmacol., 41, 873-879, 1992) and finally 50 μl of the bead/protein mixture. (final concentrations: beads, 200 μg/well; protein, 5μg/well; [^125I] probe, 0 08 nM/well(17 nCi/well). The plates are shaken for 2 h before reading on a Microbeta plate reader. Non-specific binding is determined by the addition of 10 μM cold L-691,831 compound.

[2] = tested on: synthesis of LTB4 in human whole blood; experiment: Human whole blood LTB4 production inhibition assay; type: cell-based; settings: heparinized human whole blood, calcimycin 20 μM, plasma LTB4; read-out: HuWB IC50
Procedure: Compounds are additionally tested in a human whole blood assay to determine their ability to inhibit the synthesis of LTB4 in a cellular system. Compounds are combined with heparinized human whole blood and incubated for 15 minutes at 37° C. Calcimycin (20 μM final, prepared in phosphate-buffered saline, pH 7.4) is then added and the mixture is incubated for another 30 minutes at 37° C. The samples are centrifuged for 5 min at low speed (1500×g) and the plasma layer is removed. Plasma LTB4 concentrations are then measured using an antibody-based homogenous time-resolved fluorescence method (CisBio, Bedford, Mass.).

SMILES	pIC50 [1]	pIC50 [2]
Nc1ncc(-c2ccc(C3(C(=O)Nc4ccc(-c5cn[nH]c5)cn4)CCC3)cc2)cn1 [Example 104, 1-[4-(2-aminopyrimidin-5-yl)phenyl]-N-[5-(1H-pyrazol-4-yl)pyridin-2-yl]cyclobutanecarboxamide]	8.71	6.81
Nc1ncc(-c2ccc(C3(C(=O)Nc4cc5ccccc5cn4)CCOCC3)cc2)cn1 [Example 82, 4-[4-(2-aminopyrimidin-5-yl)phenyl]-N-(isoquinolin-3-yl)tetrahydro-2H-pyran-4-carboxamide]	7.98	5.56
Cc1cc(NC(=O)C2(c3ccc(-c4cnc(N)nc4)cc3)CCOCC2)cc(C(F)(F)F)c1 [Example 46, 4-[4-(2-aminopyrimidin-5-yl)phenyl]-N-[3-methyl-5-(trifluoromethyl)phenyl] tetrahydro-2H-pyran-4-carboxamide]	6.74	< 5.52
Nc1ncc(-c2ccc(C3(C(=O)Nc4cc(C(F)(F)F)no4)CCOCC3)cc2)cn1 [Example 125, 4-[4-(2-aminopyrimidin-5-yl)phenyl]-N-[3-(trifluoromethyl)-1,2-oxazol-5-yl]tetrahydro-2H-pyran-4-carboxamide]	6.76	5.26
Cc1ccc2cc(NC(=O)C3(c4ccc(-c5cnc(N)nc5)cc4)CCOCC3)ccc2n1 [Example 86, 4-[4-(2-aminopyrimidin-5-yl)phenyl]-N-(2-methylquinolin-6-yl)tetrahydro-2H-pyran-4-carboxamide]	7.73	6.39
Cc1cc(C)c2ccc(NC(=O)C3(c4ccc(-c5cnc(N)nc5)cc4)CCOCC3)nc2n1 [Example 38, 4-[4-(2-aminopyrimidin-5-yl)phenyl]-N-(5,7-dimethyl-1,8-naphthyridin-2-yl)tetrahydro-2H-pyran-4-carboxamide]	7.23	< 5.52
Nc1ncc(-c2ccc(C3(C(=O)Nc4ccc(-c5cccnc5)cn4)CCC3)cc2)cn1 [Example 239, 1-[4-(2-aminopyrimidin-5-yl)phenyl]-N-(3,3'-bipyridin-6-yl)cyclobutanecarboxamide]	8.67	6.84
Cn1cc(-c2ccc(NC(=O)C3(c4ccc(-c5cnc(N)nc5)cc4)CCC3)nc2)cn1 [Example 255, 1-[4-(2-aminopyrimidin-5-yl)phenyl]-N-[5-(1-methyl-1H-pyrazol-4-yl)pyridin-2-yl]cyclobutanecarboxamide]	8.60	6.84
Nc1ncc(-c2ccc(C3(C(=O)Nc4ccc(Oc5ccc(Cl)cc5)cc4)CCOCC3)cc2)cn1 [Example 63, 4-[4-(2-aminopyrimidin-5-yl)phenyl]-N-[4-(4-chlorophenoxy)phenyl]tetrahydro-2H-pyran-4-carboxamide]	7.52	6.09
CC(C)(O)c1ccc(NC(=O)C2(c3ccc(-c4cnc(N)nc4)cc3)CCOCC2)nc1 [Example 159, 4-[4-(2-aminopyrimidin-5-yl)phenyl]-N-[5-(2-hydroxypropan-2-yl)pyridin-2-yl]tetrahydro-2H-pyran-4-carboxamide]	6.38	
Cc1cc(C)nc(NC(=O)C2(c3ccc(-c4cnc(N)nc4)cc3)CCOCC2)c1 [Example 10, 4-[4-(2-aminopyrimidin-5-yl)phenyl]-N-(4,6-dimethylpyridin-2-yl)tetrahydro-2H-pyran-4-carboxamide]	6.62	
CCCCCc1ccnc(NC(=O)C2(c3ccc(-c4cnc(N)nc4)cc3)CCOCC2)c1 [Example 161, 4-[4-(2-aminopyrimidin-5-yl)phenyl]-N-(4-pentylpyridin-2-yl)tetrahydro-2H-pyran-4-carboxamide]	7.51	
Nc1ncc(-c2ccc(C3(C(=O)Nc4ccccn4)CCCCC3)cc2)cn1 [Example 160, 1-[4-(2-aminopyrimidin-5-yl)phenyl]-N-(pyridin-2-yl)cyclohexanecarboxamide]	7.89	
Cc1cnc(NC(=O)C2(c3ccc(-c4cnc(N)nc4)cc3)CCC2)s1 [Example 211, 1-[4-(2-aminopyrimidin-5-yl)phenyl]-N-(5-methyl-1,3-thiazol-2-yl)cyclobutanecarboxamide]	7.63	
Cc1ccnc(NC(=O)C2(c3ccc(-c4cnc(N)nc4)cc3)CCOCC2)c1 [Example 140, 4-[4-(2-aminopyrimidin-5-yl)phenyl]-N-(4-methylpyridin-2-yl)tetrahydro-2H-pyran-4-carboxamide]	6.64	
Nc1ncc(-c2ccc(C3(C(=O)Nc4cccc(S(=O)(=O)N5CCOCC5)c4)CCOCC3)cc2)cn1 [Example 35, 4-[4-(2-aminopyrimidin-5-yl)phenyl]-N-[3-(mopholin-4-ylsulfonyl)phenyl]tetrahydro-2H-pyran-4-carboxamide]	6.41	
COc1nc(-c2ccc(C3(C(=O)Nc4ccc(-c5csc(C)n5)cn4)CCOCC3)cc2)cnc1N [Example 181, 4-[4-(5-amino-6-methoypyrazin-2-yl)phenyl]-N-[5-(2-methyl-1,3-thiazol-4-yl)pyridin-2-yl]tetrahydro-2H-pyran-4-carboxamide]	6.96	
CC(C)C(C)(C(=O)Nc1ccncc1)c1ccc(-c2ccc(NCCO)nc2)cc1 (stereo not shown) [Example 226, 2-(4-{6-[(2-hydroxyethyl)amino]pyridin-3-yl}phenyl)-2,3-dimethyl-N-(pyridin-4-yl)butanamide]	6.60	
Nc1ncc(-c2ccc(C3(C(=O)Nc4cccc(S(=O)(=O)C(F)(F)F)c4)CCOCC3)cc2)cn1 [Example 44, 4-[4-(2-aminopyrimidin-5-yl)phenyl]-N-{3-[(trifluoromethyl)sulfonyl]phenyl}tetrahydro-2H-pyran-4-carboxamide]	6.57	
Nc1ncc(-c2ccc(C3(C(=O)Nc4ccc(O)c(C(=O)O)c4)CCC3)cc2)cn1 [Example 101, 5-[({1-[4-(2-aminopyrimidin-5-yl)phenyl]cyclobutyl}carbonyl)amino]-2-hydroxybenzoic acid]	7.33	
Cc1nc(-c2ccc(NC(=O)C(c3ccc(-c4cnc(N)nc4)cc3)C3CCCC3)nc2)cs1 (stereo not shown) [Example 248, 2-[4-(2-aminopyrimidin-5-yl)phenyl]-2-cyclopentyl-N-[5-(2-methyl-1,3-thiazol-4-yl)pyridin-2-yl]acetamide]	6.62	
CCOC(=O)c1sc(NC(=O)C2(c3ccc(-c4cnc(N)nc4)cc3)CCOCC2)nc1-c1ccccc1 [Example 19, ethyl 2-[({4-[4-(2-aminopyrimidin-5-yl)phenyl]tetrahydro-2H-pyran-4-yl}carbonyl)amino]-4-phenyl-1,3-thiazole-5-carboxylate]	6.92	
CC(=O)N1CCc2ccc(NC(=O)C3(c4ccc(-c5cnc(N)nc5)cc4)CCOCC3)cc21 [Example 29, N-(1-acetyl-2,3-dihydro-1H-indol-6-yl)-4-[4-(2-aminopyrimidin-5-yl)phenyl]tetrahydro-2H-pyran-4-carboxamide]	6.72	
Nc1ncc(-c2ccc(C3(C(=O)Nc4cccc(CN5CCCC5)c4)CCOCC3)cc2)cn1 [Example 50, 4-[4-(2-aminopyrimidin-5-yl)phenyl]-N-[3-(pyrrolidin-1-ylmethyl)phenyl]tetrahydro-2H-pyran-4-carboxamide]	6.36	
Cc1ccc(NC(=O)C2(c3ccc(-c4cnc(N)nc4)cc3)CCOCC2)nc1 [Example 139, 4-[4-(2-aminopyrimidin-5-yl)phenyl]-N-(5-methylpyridin-2-yl)tetrahydro-2H-pyran-4-carboxamide]	6.96	
